# Results published in PMC6739329 (Scientific Reports, 2019).
# Like-named read-outs stand apart in the source and are kept apart here.
# Tests used:
# [1] = molecular target: T1, ENO1 (Homo sapiens, UniProt P06733); test: In vitro ENO1 activity assay (2-PGA to PEP, absorbance at 240 nm)
# Experimental: Background signals induced by reaction solutions containing salicylates and 2-PGA, but without ENO1, were subtracted to calculate ΔOD240. […] Percent inhibition was calculated by monitoring the ΔOD240 at 5 min with or without salicylates. Data are mean ± SD (n = 3). Experiments were repeated three times with similar results.
# The catalytic activity of ENO1 was tested as previously described with minor modifications[80]. Briefly, increasing concentrations of salicylates were incubated with 0.1 µM ENO1 for 30 min at RT in reaction buffer (10 mM KCl, 5 mM MgSO4, 100 mM triethanolamine pH 7.4).
# [2] = test system: HEK293 cells; test: Morphology of HEK293 cells treated 15 h with salicylates; assay type: cell-based, human; details: 15 h treatment
# Source text: Data are mean ± SD (n = 3). […] Scale bar = 20 μm.
# changes in HEK293 cells. Scale bar = 50 μm.
# changes of HEK293 cells. Scale bar = 50 μm.
# [3] = test system: HEK293 cells; test: In vivo glycolytic activity assay (extracellular lactate); assay type: cell-based, human; details: for Reduction of extracellular lactate levels: 15 hrs
# Experimental: Data are mean ± SD (n = 3).
# Glycolytic activity of HEK293 cells in the absence or presence of different concentrations of salicylates was measured by monitoring the level of lactate produced[33],[34]. HEK293 cells were seeded in 96-well tissue culture plates at a density of 10^4 cells/well in 120 µL of complete medium (DMEM medium supplemented with 10% heat-inactivated FBS). Plates were incubated overnight in a CO2 incubator at 37 °C. […] Following a 15 hr incubation in a CO2 incubator at 37 °C, cellular supernatants were collected and lactate levels were measured by colorimetry according to the manufacturer’s instructions for a glycolysis cell-based assay kit (Cayman, Ann Arbor, Michigan).
# [4] = molecular target: T2, PKM2 (Homo sapiens, UniProt P14618); test: Thermal stability assay of PKM2 with salicylates; assay type: binding; details: 2 µM PKM2, Tm 42 °C without ligand
# T2 construct: each gene was amplified and cloned into pET28a vector for recombinant protein production; 6xHis; made in house; host or cells: Escherichia coli BL21
# T2 sequence (P14618 whole entry): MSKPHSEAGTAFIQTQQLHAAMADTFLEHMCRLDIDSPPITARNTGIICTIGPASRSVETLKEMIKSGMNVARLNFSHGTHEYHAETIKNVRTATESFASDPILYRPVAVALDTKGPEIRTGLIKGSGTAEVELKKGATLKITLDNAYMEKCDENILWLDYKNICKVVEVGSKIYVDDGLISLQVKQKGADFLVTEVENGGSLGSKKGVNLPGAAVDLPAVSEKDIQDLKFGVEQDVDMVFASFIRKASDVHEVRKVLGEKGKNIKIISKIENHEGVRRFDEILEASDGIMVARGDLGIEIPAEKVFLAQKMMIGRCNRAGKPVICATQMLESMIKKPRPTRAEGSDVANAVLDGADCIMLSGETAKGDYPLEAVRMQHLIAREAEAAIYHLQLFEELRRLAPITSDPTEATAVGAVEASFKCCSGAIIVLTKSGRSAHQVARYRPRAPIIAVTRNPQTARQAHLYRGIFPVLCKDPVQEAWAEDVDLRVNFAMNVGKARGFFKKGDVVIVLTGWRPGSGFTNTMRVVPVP
# [5] = molecular target: T1, ENO1; test: Thermal stability assay of ENO1 with salicylates; details: 2 µM ENO1, Tm 44 °C in the absence of SA or amoB1
# Experimental: Data are mean ± SD (n = 3). Experiments were repeated three times with similar results.
# Thermal stability assay was performed with ENO1 and PKM2 as previously described with minor modifications[7].
# A thermal stability assay was used to examine the binding activities of ENO1 and PMK2 with salicylates as previously described with minor modifications 6. Purified ENO1 and
# final concentration of each protein was 2 μM in 16 μl of reaction buffer (0.1 M HEPES, pH 7.5, 150 mM NaCl, and 5 mM BME). Four μl of a 1:200 dilution of stock SYPRO orange dye (Invitrogen) in reaction buffer was added to achieve a total reaction volume of 20 μl. Thermal melt curves were obtained by heating the protein from 20–95°C and monitoring fluorescence at 590 nm with a CFX96 Real-Time PCR Detection System (Bio-Rad). All curves were obtained in triplicate and averaged.
# [6] = molecular target: T1, ENO1; details: read-out: Kd (quenching of ENO1 intrinsic fluorescence); 1 µM ENO1, 30 min at RT
# Experimental: For the Trp intrinsic fluorescence assay, different concentrations of salicylates were incubated with 1 µM ENO1 for 30 min at RT, then Trp emission fluorescence was obtained (excitation/emission = 295 nm/350 nm). […] Data are mean ± SD (n = 3). Experiments were repeated three times with similar results.
# Binding of salicylates to ENO1 and PKM2 was assessed using a Trp intrinsic fluorescence assay as previously described[79].
# A Trp intrinsic fluorescence assay was used to examine the binding of salicylates to ENO1
# The final concentration of each protein was 1 μM in phosphate-buffered saline (PBS) buffer. The mixtures were subjected to excitation wavelength of 295 nm and the Trp emission fluorescence was recorded at 350 nm using a LS55 fluorescence spectrometer (Perkin Elmer). All data were obtained in triplicate and averaged.
# [7] = molecular target: T2, PKM2; test: Tryptophan (Trp) intrinsic fluorescence assay of PKM2; assay type: binding; details: 1 µM PKM2, 30 min at RT; read-out: Kd (quenching of PKM2 intrinsic fluorescence)
# [8] = molecular target: T2, PKM2; test: In vitro PKM activity assay (LDH-coupled, NADH to NAD+), PKM2; assay type: biochemical; details: 1.3 ng/µL PKM2
# Experimental: PK activity was measured using a method described previously with minor modifications. In brief, PK activity was measured by monitoring pyruvate-dependent conversion of NADH to NAD^+ by lactate dehydrogenase (LDH). Increasing concentrations of salicylates were incubated with PKM2 (final concentration 1.3 ng/uL) for 30 min at RT in the incubation buffer (50 mM Tris-HCl, pH 7.5, 100 mM KCl, 5 mM MgCl2) before mixing with 1/10 volume of 10X pyruvate kinase reaction buffer (500 mM Tris-HCl, pH 7.5, 500 mM KCl, 50 mM MgCl2, 5 mM PEP (Sigma-Aldrich, P0564), 6 mM ADP (Sigma-Aldrich, A5285), 80 units LDH (Sigma-Aldrich, L1254), 10 mM DTT, and 1.80 mM NADH (SigmaAldrich, N8129)).
# [9] = resulting from the required aspirin dosage; cited from earlier work
# [10] = molecular target: PKM1 (Homo sapiens, UniProt P14618); test: In vitro PKM activity assay, PKM1; assay type: biochemical; details: SA 0.4 mM
# Sequence of PKM1 (P14618 1-531 isoform P14618-2, species assumed): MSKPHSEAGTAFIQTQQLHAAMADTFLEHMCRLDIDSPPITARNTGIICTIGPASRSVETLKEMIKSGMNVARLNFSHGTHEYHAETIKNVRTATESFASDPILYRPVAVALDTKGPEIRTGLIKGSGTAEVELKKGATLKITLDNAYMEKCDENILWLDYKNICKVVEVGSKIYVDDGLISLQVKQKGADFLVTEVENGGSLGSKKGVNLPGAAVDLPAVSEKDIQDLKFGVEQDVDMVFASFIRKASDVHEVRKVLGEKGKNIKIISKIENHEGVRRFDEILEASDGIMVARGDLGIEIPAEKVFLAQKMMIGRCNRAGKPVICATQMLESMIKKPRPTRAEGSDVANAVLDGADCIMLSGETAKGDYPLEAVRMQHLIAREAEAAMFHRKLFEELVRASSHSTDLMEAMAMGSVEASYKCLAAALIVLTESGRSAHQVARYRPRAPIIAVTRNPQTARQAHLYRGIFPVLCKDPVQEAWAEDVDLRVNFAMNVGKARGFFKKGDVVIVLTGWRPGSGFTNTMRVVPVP
# [11] = molecular target: maltose-binding protein (MBP) (Escherichia coli, UniProt P0AEX9); test: Thermal stability assay of maltose-binding protein (negative control protein); details: 10 mM SA
# T1 sequence (P06733 whole entry): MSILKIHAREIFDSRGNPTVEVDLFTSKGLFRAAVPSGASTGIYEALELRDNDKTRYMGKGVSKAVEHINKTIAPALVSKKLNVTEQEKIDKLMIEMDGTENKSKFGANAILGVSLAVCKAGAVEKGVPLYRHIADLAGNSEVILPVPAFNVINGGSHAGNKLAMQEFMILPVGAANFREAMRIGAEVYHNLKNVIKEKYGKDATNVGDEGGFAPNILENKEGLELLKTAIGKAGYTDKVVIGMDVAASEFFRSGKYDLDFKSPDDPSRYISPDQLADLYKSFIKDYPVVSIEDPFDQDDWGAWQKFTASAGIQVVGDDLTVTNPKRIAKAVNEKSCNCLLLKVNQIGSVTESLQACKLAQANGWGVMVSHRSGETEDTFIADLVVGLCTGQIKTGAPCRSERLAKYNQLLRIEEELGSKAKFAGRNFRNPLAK
smiles,measurement,setting,value
"COc1cc(CCc2ccccc2)c(C(=O)O)c(O)c1C/C=C(\C)CCC=C(C)C [amoB1, amorfrutin B1]",Potency of ENO1 inhibition relative to SA (times stronger than SA),[1]; ratio of IC50 values,~ 84 times
same,IC50,"[1]; read-out: IC50 for ENO1 enzymatic activity, 0.1 µM ENO1, […] 2-PGA, ΔOD240 at 5 min",15.4 µM
same,Concentration at which cell deformation was observed,[2],above 2 µM
same,Concentration with no visible morphological changes of cells,[2],Up to 2 µM
same,Extracellular lactate levels,"[3]; 20–50 µM amoB1, 15 hr",drastically reduced
same,Extracellular lactate levels,"[3]; amoB1 up to 10 µM, 15 hr",not substantially altered
same,Tm of PKM2,[4]; 5 µM amoB1,42.4 °C
same,Tm of ENO1,[5]; 12.5 µM amoB1,45.1 °C
same,Kd,[6],26.9 µM
same,Kd,[7],3.2 µM
same,IC50,[8],15.2 µM
"O=C(O)c1ccccc1O [SA, Salicylic acid]",IC50,[1],1300 µM
same,Concentration at which cells were substantially smaller and more spherical,[2],≥ 20000 µM
same,Concentration with no detectable morphological deformation of cells,[2]; microscope,up to 10 mM
same,SA in the plasma for analgesic/antipyretic effects,[9],~ 0.5 mM
same,Reduction of extracellular lactate levels,[3]; 0.5 mM SA,12%
same,Reduction of extracellular lactate levels,[3]; 1.0 mM SA,27%
same,Tm of PKM2,[4]; 5 mM SA,41 °C
same,Tm of ENO1,[5]; 5 mM SA,43.0 °C
same,Effect on PKM1 enzymatic activity,[10],did not alter
same,inhibition at 400 µM,[8]; 400 µM SA,≤ 40%
same,Tm of MBP,[11],not altered
